Test results: ChEMBL document CHEMBL1156105 (J Med Chem, 2009)
Calls of active or inactive are those of the source. No cut-off for these calls is given here.

What was measured:
[1] = Metabolic stability in 50% human plasma assessed as half life at pH 7.4 by RP-HPLC
[2] = tested on: Plasma; test: Metabolic stability in 50% human plasma assessed as aspirin release at pH 7.4 by RP-HPLC; assay type: ADME, cell-free; note: time not given here
[3] = Metabolic stability in 10% human plasma assessed as half life at pH 7.4 by RP-HPLC
[4] = tested on: Plasma; test: Metabolic stability in 10% human plasma assessed as aspirin release at pH 7.4 by RP-HPLC; assay type: ADME, cell-free; note: time not given here
[5] = Antiplatelets aggregatory activity in human platelets rich plasma assessed as inhibition of collagen-induced platelets aggregation by aggregometry; assay type: functional, cell-free; conditions: Platelet
[6] = tested on: Plasma; test: Metabolic stability in 50% human plasma assessed as half life at pH 7.4 by RP-HPLC; assay type: ADME, cell-free
[7] = tested on: Platelet; test: Antiplatelets aggregatory activity in washed human platelets assessed as inhibition of ADP-induced platelets aggregation by aggregometry in presence of glutathione; assay type: functional, cell-based
[8] = tested on: Platelet; test: Antiplatelets aggregatory activity in washed human platelets assessed as inhibition of ADP-induced platelets aggregation by aggregometry in presence of glutathione and ODQ; assay type: functional, cell-based
[9] = tested on: Platelet; test: Antiplatelets aggregatory activity in human platelets rich plasma assessed as inhibition of ADP-induced platelets aggregation by aggregometry; assay type: functional, cell-free
[10] = tested on: Platelet; test: Antiplatelets aggregatory activity in human platelets rich plasma assessed as inhibition of ADP-induced platelets aggregation by aggregometry in presence of […] ODQ; assay type: functional, cell-free
[11] = tested on: Plasma; test: Metabolic stability in 50% human plasma assessed as half life at pH 7.4 by RP-HPLC in presence of BuChE-inhibitor isoOMPA; assay type: ADME, cell-free
[12] = tested on: Plasma; test: Metabolic stability in 50% human plasma assessed as aspirin release at pH 7.4 by RP-HPLC in presence of AChE-inhibitor PMSF; assay type: ADME, cell-free
[13] = tested on: Plasma; test: Metabolic stability in 50% human plasma assessed as half life at pH 7.4 by RP-HPLC in presence of BuChE-inhibitor dibucaine; assay type: ADME, cell-free
[14] = tested on: Plasma; test: Metabolic stability in 50% human plasma assessed as half life at pH 7.4 by RP-HPLC in presence of cholinesterase-inhibitor eserine; assay type: ADME, cell-free
[15] = tested on: Plasma; test: Metabolic stability in 50% human plasma assessed as aspirin release at pH 7.4 by RP-HPLC in presence of BuChE-inhibitor dibucaine; assay type: ADME, cell-free
[16] = tested on: Plasma; test: Metabolic stability in 50% human plasma assessed as half life at pH 7.4 by RP-HPLC in presence of AChE-inhibitor PMSF; assay type: ADME, cell-free

Structure (SMILES) | half-life [1] [min] | Activity [2] [%] | half-life [3] [min] | Activity [4] [%] | further results
CC(=O)Oc1ccccc1C(=O)O[C@H]1CO[C@H]2[C@@H]1OC[C@H]2OC(=O)c1ccc([N+](=O)[O-])cc1 | 1.36 | 22 | 2.77 | 13 | 
CC(=O)Oc1ccccc1C(=O)O [ASPIRIN] |  |  |  |  | IC50 [5]: 20.6 µM
CC(=O)Oc1ccccc1C(=O)O[C@H]1CO[C@H]2[C@@H]1OC[C@H]2OC(=O)c1cnoc1C |  | 14 | 11.6 | 18 | t1/2 [6]: 0.06 min
CC(=O)Oc1ccccc1C(=O)O[C@H]1CO[C@H]2[C@@H]1OC[C@H]2OC(=O)c1ccc(C#N)cc1 | 4.08 | < 0.5 | 5.33 | 19 | 
CC(=O)Oc1ccccc1C(=O)O[C@H]1CO[C@H]2[C@@H]1OC[C@H]2OC(=O)C1CC1 | 0.9 | < 0.5 | 1.93 | 2 | 
CC(=O)Oc1ccccc1C(=O)O[C@H]1CO[C@H]2[C@@H]1OC[C@H]2OC(=O)c1ccc(CO[N+](=O)[O-])cc1 | 2.4 | < 1 | 6 | < 5 | IC50 [5]: > 300 µM
CC(=O)Oc1ccccc1C(=O)O[C@H]1CO[C@H]2[C@@H]1OC[C@H]2OC(=O)CCO[N+](=O)[O-] | 1.3 |  | 3.9 |  | 
CC(=O)Oc1ccccc1C(=O)O[C@@H]1CO[C@H]2[C@@H]1OC[C@@H]2O[N+](=O)[O-] (racemic) |  |  | 1.3 |  | 
CC(=O)Oc1ccccc1C(=O)O[C@H]1CO[C@H]2[C@@H]1OC[C@H]2OC(=O)CO[N+](=O)[O-] | 0.9 |  | 3.6 |  | 
CC(=O)Oc1ccccc1C(=O)O[C@H]1CO[C@H]2[C@@H]1OC[C@H]2OC(=O)c1ccc(-c2ccccc2)cc1 | > 20 | < 0.5 | > 20 | < 0.5 | 
CC(=O)Oc1ccccc1C(=O)O[C@H]1CO[C@H]2[C@@H]1OC[C@H]2OC(C)=O | 0.57 | 1.3 | 3.65 | 1.2 | 
CC(=O)Nc1cccc(C(=O)O[C@@H]2CO[C@H]3[C@@H]2OC[C@@H]3OC(=O)c2ccccc2OC(C)=O)c1 | 3.5 | 11 |  |  | 
CC(=O)Oc1ccccc1C(=O)O[C@H]1CO[C@H]2[C@@H]1OC[C@H]2OC(=O)c1cc(C)nc(Cl)c1 | 1.16 | 14 | 1.16 | 24 | 
COc1cccc(C(=O)O[C@@H]2CO[C@H]3[C@@H]2OC[C@@H]3OC(=O)c2ccccc2OC(C)=O)c1 | 0.85 | 17 | 3.15 | 19 | 
CC(=O)Oc1ccccc1C(=O)O[C@H]1CO[C@H]2[C@@H]1OC[C@H]2OC(=O)c1ccc(C)cc1 | 2.17 | 14.7 | 6.3 | 16 | 
CC(=O)Oc1ccccc1C(=O)O[C@H]1CO[C@H]2[C@@H]1OC[C@H]2OC(=O)c1cccc(O)c1 | 0.9 | 29 | 1.1 | 44 | 
CC(=O)Oc1ccccc1C(=O)O[C@H]1CO[C@H]2[C@@H]1OC[C@H]2O[N+](=O)[O-] | 0.188 | 7.7 | 0.867 | 9.1 | t1/2 [11]: 38.3 min; Activity [12]: 6.2%; t1/2 [13]: 4.2 min; t1/2 [14]: 178 min; Activity [15]: 6.75%; t1/2 [16]: 2.9 min
CC(=O)Oc1ccccc1C(=O)O[C@H]1CO[C@H]2[C@@H]1OC[C@H]2OC(=O)c1ccccc1C | 0.83 | 59 | 2.1 | 46 | 
CC(=O)Oc1ccccc1C(=O)O[C@H]1CO[C@H]2[C@@H]1OC[C@H]2OC(=O)c1ccccc1OC(=O)c1ccccc1 | 4.33 | 19 | 23.1 | 28 | 
CC(=O)Oc1ccccc1C(=O)O[C@H]1CO[C@H]2[C@@H]1OC[C@H]2OC(=O)c1ccccc1O | 1.14 | 85 | 4.95 | 72 | inhibition [9]: Active; IC50 [5]: 20.6 µM
CC(=O)Oc1ccccc1C(=O)O[C@H]1CO[C@H]2[C@@H]1OC[C@H]2OC(=O)c1ccncc1 | 0.33 | 27 | 3.7 | 19 | 
CCCCC(=O)O[C@@H]1CO[C@H]2[C@@H]1OC[C@@H]2OC(=O)c1ccccc1OC(C)=O | 0.7 | < 0.5 | 1.19 |  | 
CC(=O)Oc1ccccc1C(=O)O[C@H]1CO[C@H]2[C@@H]1OC[C@H]2OC(=O)c1ccnn1C | 3.85 | 6 | 5.78 | 7 | 

Second part, led by results:

half-life [1] [min] | Activity [2] [%] | half-life [3] [min] | Activity [4] [%] | Structure (SMILES) | further results
1.1 | < 0.5 | 3.3 | < 0.5 | CC(=O)Oc1ccccc1C(=O)O[C@H]1CO[C@H]2[C@@H]1OC[C@H]2O | 
1.1 | 4 | 3.15 | 2.6 | COc1ccc(C(=O)O[C@@H]2CO[C@H]3[C@@H]2OC[C@@H]3OC(=O)c2ccccc2OC(C)=O)cc1 | 
0.64 | 29 | 3.3 | 19 | CC(=O)Oc1ccccc1C(=O)O[C@H]1CO[C@H]2[C@@H]1OC[C@H]2OC(=O)c1ccccc1 | 
0.37 | 32 | 1.39 | 41 | CC(=O)Oc1ccccc1C(=O)O[C@H]1CO[C@H]2[C@@H]1OC[C@H]2OC(=O)c1cccnc1 | 
1.19 | 0.5 | 1.19 | 1 | CC(=O)Oc1ccccc1C(=O)O[C@H]1CO[C@H]2[C@@H]1OC[C@H]2OC(=O)c1ccc(O)cc1 | 
0.99 | 7 | 3.47 | 5 | COc1ccccc1C(=O)O[C@@H]1CO[C@H]2[C@@H]1OC[C@@H]2OC(=O)c1ccccc1OC(C)=O | 
2.7 | 55 | 2.6 | 51 | CC(=O)Oc1ccccc1C(=O)O[C@H]1CO[C@H]2[C@@H]1OC[C@H]2OC(=O)c1cccc(CO[N+](=O)[O-])c1 | inhibition [7]: Active; inhibition [8]: inactive; inhibition [9]: Active; IC50 [5]: 17.1 µM; inhibition [10]: inactive
3.2 | 34 | 2.7 | 32 | CC(=O)Oc1ccccc1C(=O)O[C@H]1CO[C@H]2[C@@H]1OC[C@H]2OC(=O)c1ccccc1CO[N+](=O)[O-] | IC50 [5]: 90.3 µM
1.22 | 54 | 9.9 | 38 | CC(=O)Oc1ccccc1C(=O)O[C@H]1CO[C@H]2[C@@H]1OC[C@H]2OC(=O)c1cccc(C)c1 | 
1.7 | < 0.5 |  |  | CCOc1cc(OCC)cc(C(=O)O[C@@H]2CO[C@H]3[C@@H]2OC[C@@H]3OC(=O)c2ccccc2OC(C)=O)c1 | 
1.93 | 17 | 3.85 | 18 | CC(=O)Oc1ccccc1C(=O)O[C@H]1CO[C@H]2[C@@H]1OC[C@H]2OC(=O)c1cnccc1Cl | 
0.66 | 7 | 3.65 | 6.8 | CCC(=O)O[C@@H]1CO[C@H]2[C@@H]1OC[C@@H]2OC(=O)c1ccccc1OC(C)=O | 
0.39 | 31 | 3.85 | 32 | CC(=O)Oc1ccccc1C(=O)O[C@H]1CO[C@H]2[C@@H]1OC[C@H]2OC(=O)c1snnc1C | 
